pIC50: −log10 of the molar value.
System: 885724-159-R-J1-PDC complex spheroid viability
Assay: Anticancer human tumor 885724-159-R-J1-PDC patient-derived pancreatic adenocarcinoma cell line growth inhibition [GQUAD]
Conditions: for pIC50: curve of first compound; for viability, T/C: stronger effect = lower value; active = viability on the fitted dose curve at most 10% of control; inactive = the rest
Procedure, shortened: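 Multi-cell-type spheroids of tumor cells with HUVEC and mesenchymal stem cells, treated with drug combinations. Concentrations descend in half-log steps from near clinical Cmax, or from 10 microM where Cmax is unknown; viability read-out.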

[1] = second compound 0.0316 µM, first compound 0.0316 µM
[2] = second compound 0.0316 µM, first compound 0.1 µM
[3] = second compound 0.0316 µM, first compound 0.316 µM
[4] = second compound 0.0316 µM, first compound 1 µM
[5] = second compound 0.0316 µM, first compound 3.16 µM
[6] = second compound 0.0316 µM, first compound 10 µM
[7] = second compound 0.1 µM, first compound 0.0316 µM
[8] = second compound 0.1 µM, first compound 0.1 µM
[9] = second compound 0.1 µM, first compound 0.316 µM
[10] = second compound 0.1 µM, first compound 1 µM
[11] = second compound 0.1 µM, first compound 3.16 µM
[12] = second compound 0.1 µM, first compound 10 µM
[13] = second compound 0.316 µM, first compound 0.0316 µM
[14] = second compound 0.316 µM, first compound 0.1 µM
[15] = second compound 0.316 µM, first compound 0.316 µM
[16] = second compound 0.316 µM, first compound 1 µM
[17] = second compound 0.316 µM, first compound 3.16 µM
[18] = second compound 0.316 µM, first compound 10 µM
[19] = second compound 1 µM, first compound 0.0316 µM
[20] = second compound 1 µM, first compound 0.1 µM
[21] = second compound 1 µM, first compound 0.316 µM
[22] = second compound 1 µM, first compound 1 µM
[23] = second compound 1 µM, first compound 3.16 µM
[24] = second compound 1 µM, first compound 10 µM
[25] = second compound 3.16 µM, first compound 0.0316 µM
[26] = second compound 3.16 µM, first compound 0.1 µM
[27] = second compound 3.16 µM, first compound 0.316 µM
[28] = second compound 3.16 µM, first compound 1 µM
[29] = second compound 3.16 µM, first compound 3.16 µM
[30] = second compound 3.16 µM, first compound 10 µM
[31] = second compound 10 µM, first compound 0.0316 µM
[32] = second compound 10 µM, first compound 0.1 µM
[33] = second compound 10 µM, first compound 0.316 µM
[34] = second compound 10 µM, first compound 1 µM
[35] = second compound 10 µM, first compound 3.16 µM
[36] = second compound 10 µM, first compound 10 µM
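Note: spheroids exposed to agents for seven days before readout.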
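Throughout, for viability, T/C: percent of vehicle control viability where 100% = DMSO wells.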

CC1COCCN1c1cc(-c2ccnn2C)c2ccnc(-c3ccn[nH]3)c2n1 (centres undefined) + Cc1[nH]c2ccc(F)cc2c1-c1nc2c3cccnc3c3ncccc3c2[nH]1
inactive: viability, T/C [1] 104% | viability, T/C [2] 87.3% | viability, T/C [3] 87.2% | viability, T/C [4] 76.9% | viability, T/C [5] 53.3% | viability, T/C [6] 53.8% | viability, T/C [7] 99.7% | viability, T/C [8] 104% | viability, T/C [9] 89.8% | viability, T/C [10] 73.5% | viability, T/C [11] 62.5% | viability, T/C [12] 51.8% | viability, T/C [13] 98.7% | viability, T/C [14] 84.7% | viability, T/C [15] 68.7% | viability, T/C [16] 61.1% | viability, T/C [17] 56.6% | viability, T/C [18] 48% | viability, T/C [19] 80.4% | viability, T/C [20] 68.9% | viability, T/C [21] 63.8% | viability, T/C [22] 54.5% | viability, T/C [23] 51% | viability, T/C [24] 43.5% | viability, T/C [25] 54.8% | viability, T/C [26] 39.6% | viability, T/C [27] 47.9% | viability, T/C [28] 28.2% | viability, T/C [29] 24.8% | viability, T/C [30] 30.6% | viability, T/C [31] 66.3% | viability, T/C [32] 66% | viability, T/C [33] 62.9% | viability, T/C [34] 52.9% | viability, T/C [35] 51.8% | viability, T/C [36] 47.9%
5.30: pIC50 (second compound 10 µM)
< 5.00: pIC50 (second compound 0.0316 µM) | pIC50 (second compound 0.1 µM)
7.28: pIC50 (second compound 3.16 µM)
5.55: pIC50 (second compound 1 µM)
5.07: pIC50 (second compound 0.316 µM)

COc1ccc([C@@H](O)c2cc(-c3ncnc4cc(N5CCOCC5)ccc34)c(F)cc2Cl)nn1 + Cc1cnc(CNC(=O)c2c(=O)c3ccc(N4CCCN(C)CC4)nc3n3c2sc2ccccc23)cn1
5.27: pIC50 (second compound 0.0316 µM)
5.34: pIC50 (second compound 0.316 µM)
inactive: viability, T/C [1] 107% | viability, T/C [2] 112% | viability, T/C [3] 91.5% | viability, T/C [4] 92.3% | viability, T/C [5] 61.6% | viability, T/C [6] 34.9% | viability, T/C [7] 109% | viability, T/C [8] 96.7% | viability, T/C [9] 88.1% | viability, T/C [10] 88.8% | viability, T/C [11] 67.5% | viability, T/C [12] 37% | viability, T/C [13] 104% | viability, T/C [14] 98.9% | viability, T/C [15] 102% | viability, T/C [16] 82.9% | viability, T/C [17] 58.8% | viability, T/C [18] 32.9% | viability, T/C [19] 93.5% | viability, T/C [20] 81.5% | viability, T/C [21] 75.9% | viability, T/C [22] 75.7% | viability, T/C [23] 51.9% | viability, T/C [24] 35.1% | viability, T/C [25] 78.6% | viability, T/C [26] 71.2% | viability, T/C [27] 70.4% | viability, T/C [28] 62.4% | viability, T/C [29] 49.9% | viability, T/C [30] 24.6% | viability, T/C [31] 73.2% | viability, T/C [32] 77.9% | viability, T/C [33] 67.6% | viability, T/C [34] 59.7% | viability, T/C [35] 47.5% | viability, T/C [36] 21.2%
5.54: pIC50 (second compound 3.16 µM)
5.38: pIC50 (second compound 1 µM)
5.21: pIC50 (second compound 0.1 µM)
5.63: pIC50 (second compound 10 µM)
